{
  "source": "patent US20250387428A1",
  "about": "“PETROLATUM-BASED PHMB COMPOSITIONS AND METHODS FOR THE TREATMENT OF INFLAMMATORY SKIN DISEASE” (priority 2024, published 2025)",
  "system": "skin of albino New Zealand White rabbits",
  "assay": "Rabbit skin irritation, Primary Irritation Index",
  "conditions": "sulfate",
  "procedure": "Within 24 hours to 4 hours before test application, the backs of female albino New Zealand White rabbits were clipped free of hair, exposing 2 test and 2 control areas on each side of the spine with a size of approximately 15 cm×15 cm. The two test sites are located on the left cranial section and the right caudal section of the dorsal region. The two control sites are located on the left caudal and right cranial section of the dorsal region. FIG. 4 depicts the arrangement of test and control sites. The exposed skin is wiped with alcohol and dried. Rabbits of acceptable skin quality were selected and used for testing.\nA 25×25 mm gauze patch saturated with 0.5 mL of 0.9% NaCl is used for the control and applied to the clipped control sites. The patches are secured using hypoallergenic, waterproof, surgical tape over the test and control sites. The animal's trunk is securely wrapped so as to maintain the position of the patches. Patches are left applied for a minimum of four hours.\nAfter patch removal, the test and control sites were then scored for erythema and edema at 1, 24, 48 and 72 hours after patch removal. Only the 24, 48, and 72 hour observations were scored and used for calculations. If no response was expected, testing was conducted using three animals per test article. If irritation was anticipated, one animal was tested initially. If the first animal received a score of 2 or less for either erythema or edema, 2 additional rabbits were used to conclude the test.\nThis total was divided by the total number of observations. The same was done for the control sites. […] These scores for each animal were added and divided by the total number of animals to give the Primary Irritation Index. […] For any response, the Maximum Irritation Response, the time of onset of the response and the time of maximum response was recorded.\nTo positively validate the test, 10% sodium dodecyl sulfate (SDS), which is a known dermal irritant, in petroleum jelly was applied to a 2.5 cm×2.5 cm gauze patch. As a negative control, 0.5 mL of 0.9% NaCl was applied to a 2.5 cm×2.5 cm gauze patch. A Primary Irritation Index in the moderate to severe range is considered a positive result. The test system and methods utilized were the same as described above.",
  "key": {"[1]": {"conditions": "per rabbit, test sites, 24, 48 and 72 hour observations after patch removal, patch at least four hours"}},
  "note": "Where “and” joins values, the source holds several entries; their conditions need not be identical. Equal entries are not always repeated. Entries after “also recorded” stand apart in the source; their conditions may differ.",
  "data": [
    {"smiles": "CCCCCCCCCCCCOS(=O)(=O)[O-].[Na+]", "note": "[10% SDS, sodium dodecyl sulfate]", "values": [
      {"measurement": "Total Score Average", "setting": "per rabbit (irritation index for each animal)", "value": "Total Score Average = 6.6; also recorded: Total Score Average = 7.3; also recorded: Total Score Average = 5.3"},
      {"measurement": "ED (edema) score total", "setting": "[1]", "value": "19 and 21 and 14"},
      {"measurement": "ER (erythema) score total", "setting": "[1]", "value": "21 and 23 and 18"},
      {"measurement": "ER + ED = Total", "setting": "per rabbit, test sites, 24, 48 and 72 hour observations", "value": "40 and 44 and 32"}
    ]}
  ]
}
